Data from patent US20260364061A1, “COMPOUNDS, COMPOSITIONS, AND METHODS FOR THE TREATMENT OF CANCER” (Ohio State Innovation Foundation, priority 2023, published 2026).
Where two headings read alike, the source gives them in different places.

Experiments:
[1] = system: shIWS1 (IWS1 knockdown) dedifferentiated liposarcoma cells (cell lines Lipo863 and Lipo815); assay: Migration assay, IWS1 knockdown (shIWS1) cells; type: cell-based, human; conditions: 24 hours of treatment, vs non-treatment control
Experimental: (§1) FIG. 16A-16B. Evaluation of the effect of IWS1 inhibitors identified from in silico screening on the migration of cancer cells. […] The migration assay was performed using two cell groups: Empty Vector (EV, Negative control) and shIWS1 (IWS1 knockdown).
(§2) To evaluate these compounds, we used dedifferentiated cell lines Lipo863 and Lipo815 as an in-vitro model of dedifferentiated liposarcoma (DDLPS). […] FIG. 15A-15C. Using these candidates as potential pharmacological inhibitors of IWS1, we expected to reproduce/mimic phenotypical changes specific for lentiviral IWS1 knockdown. […] We performed a migration assay to assess the ability of cells to migrate after 24 hours of treatment compared to intact cells (EV) as well as IWS1 knockdown cells (shIWS1). Using drug concentrations that would not affect the viability of the cells, we sought to evaluate predominantly the migratory ability of cells. […] FIG. 17.

[2] = system: Empty Vector (EV) dedifferentiated liposarcoma cells (cell lines Lipo863 and Lipo815); assay: Migration assay, Empty Vector (EV) control cells; type: cell-based, human; conditions: for reduction in cell migration, Empty Vector (EV): 24 hours of treatment, EV cells, non-cytotoxic concentration, vs control group, FIG. 16A-16B
Experimental: as §1
FIG. 17. Evaluation of the dose-dependent effect of IWS1 inhibitors identified from in silico screening on the migration of cancer cells. Cell migration in vitro represents to some extent the ability of cells to metastasize in vivo.
as §2

Lipo863 cells = assay: Spheroid formation in matrigel extracellular matrix scaffold; type: cell-based, human; conditions: 14-day treatment; FIG. 19
Description: FIG. 19. To evaluate the impact of IWS1 inhibition on spheroid formation, a matrigel extracellular matrix scaffold was employed.
To evaluate the impact of IWS1 inhibition on spheroid formation, a matrigel extracellular matrix scaffold was employed.

unresectable LPS = conditions: patients with unresectable LPS; cited from earlier work
IWS1 = biological target: T1, IWS1 (Homo sapiens, UniProt Q96ST2); assay: Nuclear/cytosolic fraction analysis of IWS1 distribution; type: cell-based; conditions: 20 uM; 48-hour treatment; DMSO negative control ratio 0.75
T1 construct: document uses human liposarcoma lines; nuclear/cytosolic fractionation
Description: The binding of the small molecule to IWS1 may cause the redistribution of the latter in the cell (cytoplasmic vs nuclear locations) due to conformational changes of the protein or disruption of its functions. To characterize the effect of a drug candidate on the distribution of IWS1 in the cell, we performed fraction analysis by separating cytoplasmic and nuclear proteins.

[3] = system: invasive DDLPS cell line Lipo246; assay: Invasion of DDLPS cells; type: cell-based; conditions: 48 h, read-out: decrease in invasion ability
Description: FIG. 18. Evaluation of the effect of IWS1 inhibitors identified from in silico screening on the […] of cancer cells. Invasiveness is important parameter used to characterize the aggressive behavior of cancer cells.
Invasiveness is important parameter used to characterize the aggressive behavior of cancer cells.

[4] = system: dedifferentiated liposarcoma (DDLPS) cell line Lipo863; assay: Cell cytotoxicity (MTS) assay; conditions: Homo sapiens
IWS1/Spt6 complex = assay: Co-immunoprecipitation of the IWS1/Spt6 complex from treated cells; type: cell-based, human; conditions: Co-IP after 48 hours of treatment; vs DMSO negative control
Description: The Co-IP method allowed us to analyze IWS1/Spt6 protein complex directly and assess the efficiency of the drug candidates to disrupt the complex.

Compound | reduction in migration, shIWS1 cells [1] | reduction in cell migration, Empty Vector (EV) [2] [%] | spheroid formation: number of spheroids (Lipo863 cells) | spheroid formation: size of spheroids (Lipo863 cells) | also measured
CN1CCC(=C2c3ccccc3C=Cc3ccccc32)CC1 [Cyproheptadine] | no significant reduction | 24 | – | – | –
Clc1ccc2c(c1)CCc1cccnc1C2=C1CCNCC1 [Desloratadine] | – | – | significantly reduced | significantly reduced | –
COc1cccc2c1C(=O)c1c(O)c3c(c(O)c1C2=O)C[C@@](O)(C(=O)CO)C[C@@H]3O[C@H]1C[C@H](N)[C@H](O)[C@H](C)O1 [Doxorubicin] | – | – | – | – | 5-year survival (unresectable LPS): 20-30%; response rate (unresectable LPS): 25%
CN1CCC(=C2c3ccccc3CC(=O)c3sccc32)CC1 [Ketotifen] | no significant reduction | 18 | significantly reduced | significantly reduced | increase of ratio between nuclear and cytosolic fractions of IWS1 (IWS1): 1.1; inhibition at 20 µM [3]: 30%; IC50 ([4]; read-out: IC50 (cell cytotoxicity assay)): 63 µM; IC50 ([4]; read-out: IC50 (the concentration at which the drug kills 50% of cancer cells)): 63 µM; decrease in amount of IWS1/Spt6 complex pulled down (IWS1/Spt6 complex): more than 50%; decrease in migration ability (dose-dependent) ([2]; 1-10 uM solutions, FIG. 17): 18-44%
